According to patent US20070105721A1, “Vinylogous 4-Hpyrones and their use in promoting plant growth” (priority 2003, published 2007):

Tests used:
Assay type in all cases: in vivo
[1] = tested on: Grand Rapids Lettuce seeds (Waltham strain); assay: Grand Rapids bioassay; settings: for Germination, Grand Rapids: compounds isolated from smoke, mean (SEM)
Method: Grand Rapids Lettuce seeds (Waltham strain) were obtained from R.B. Dessert Seed Co. and were frozen in sachets until use. For testing of aqueous samples, 2.5 mL of test solution was applied to three replicates of 40-50 seeds in Petri dishes (90 mm) lined with two layers of Whatman No. 1 filter paper (7 cm). Millipore filtered water (MP water) was used as a control for each experiment and dilutions of each sample were used to ensure the optimum concentration range for activity. Fractions were reconstituted to their original concentration (before fractionation) and dilutions were made using MP water. Petri dishes were sealed with a layer of plastic wrap, and stored in a light proof container. All manipulations involving the seed were carried out in a dark room and germinants, based on the appearance of a radicle, were scored after 48 hours incubation.

Stylidium affine seeds = assay: Native bioassay; settings: compounds isolated from smoke; mean (SEM)
Method: (§1) Conostylis aculeata and Stylidium affine seeds were obtained from Nindethana seed service and stored before use. For testing of aqueous samples, three replicates of 20-30 sterilised seeds were added to UV sterilised petri dishes (90 mm), containing two Whatman No. 1 filter papers (7 cm) moistened with the filtered test solution (2.5 mL, 0.22 μm). MP water was used as a control for each experiment and dilutions of each sample were used to ensure the optimum concentration range for activity. Petri dishes were then sealed with parafilm and incubated in the dark at 20±1° C. The seeds were scored on a weekly basis with optimum germination achieved between 4-6 weeks.

[2] = tested on: Conostylis aculeata seeds; assay: Native bioassay; settings: compounds isolated from smoke; mean (SEM)
Method: as §1

[3] = 100 ppm, * = inhibits germination at this concentration

Row | SMILES | Germination, Grand Rapids [1] | Germination, Stylidium affine (Stylidium affine seeds) | Germination, Conostylis aculeata [2] | Germination of formula (5) analogues ([1]; 1 ppm) | Germination of formula (5) analogues ([1]; 10 ppm) | Germination of formula (5) analogues ([1]; 100 ppb) | Germination of formula (5) analogues [1, 3]
1 | Cc1cc(=O)oc2ccoc12 [Compound L-3, 7-methyl-5H-furo[3,2-b]pyran-5-one] | 42.1 (1.5) % | 0% | 11.6 (2.5) % |  |  |  | 
2 | CC1=CC(=CC(=O)c2ccccc2)C=C(C)O1 [Compound 5c, 2-(2,6-dimethyl-4H-pyran-4-ylidene)-1-phenylethanone] |  |  |  | 54.3 (±3.1) | 69.3 (±4.4) | 53.2 (±4.1) | 74.1 (±6.7)
3 | CCOC(=O)C(SC(C)=O)=C1C=COC=C1 [Compound 5b, ethyl 2-(acetylthio)-2-(4H-pyran-4-ylidene) acetate] |  |  |  | 64.7 (±4.5) | 82.6 (±3.4) | 54.3 (±7.2) | *39.4 (±2.7)
4 | O=C1C=C(c2ccco2)CO1 [Compound L-1, 2,3′-bifuran-5′(2′H)-one] | 42.4 (6.6) % | 0% | 7.5 (1.3) % |  |  |  | 
5 | CCOC(=O)C=C1C=COC=C1 [Compound 5a, ethyl 2-(4H-pyran-4-ylidene) acetate] |  |  |  | 86.7 (±7.4) | 94.7 (±0.4) | 66.9 (±10.2) | 99.1 (±0.9)
